{"source": "patent US12257251B2", "about": "“Use of FAK inhibitor in preparation of drug for treating tumors having NRAS mutation” (INXMED (NANJING) CO., LTD., priority 2019, dated 2025)", "key": {"[1]": {"tested_on": "human esophageal cancer cell line KYSE-270", "test": "Subcutaneous xenograft of human esophageal cancer cell line KYSE-270 in NMRI nude mice: tumor growth", "type": "in vivo, mouse", "settings": "for Tumor shrinkage [x/y]: BI853520 50 mg/Kg qd", "description": "1.1. Model: Subcutaneous xenograft of human esophageal cancer cell line KYSE-270 in NMRI nude mice.\n1.3. Cells: KYSE-270 is an esophageal cancer cell line (Public Health England, catalog number: 94072021). Cells were cultured in T175 tissue culture flasks containing 5% CO2 at 37° C. The medium was RPMI 1640+HAM F12 (1:1) supplemented with 2% FCS and 2 mM Glutamax. Passage was performed three times a week at a ratio of 1:2.\n1.4. Mice: Mice were 8 to 10 week old female mice (BomTac: NMRI-Foxn1^nu) purchased from Taconic®, Denmark. Upon arrival in the animal room, the mice were allowed to acclimate for at least 5 days before being used for assay. The animals were housed under standard conditions (temperature: 21.5±1.5° C., humidity: 55+10%), 7 to 10 mice for each group. A standard diet and autoclaved tap water were provided for ad libitum feeding. A subcutaneous microchip implanted under isoflurane anesthesia was used to identify each mouse.\n1.5. Random establishment of tumors: To establish subcutaneous tumors, KYSE-270 cells were harvested by centrifugation, washed and resuspended in PBS+5% FCS at a concentration of 5×10^7 cells/ml. Then 100 l of cell suspension containing 5×10^6 cells was injected subcutaneously into the right flank of mice (1 site per mouse). When tumors were well established and reached a volume of 94 to 252 mm^3, mice were randomly assigned to the treatment group and the control group (13 days after cell injection).\n1.6. Administration: BI 853520 was suspended in 0.5% hydroxyethyl cellulose, which was administered intragastrically through gavage needle every day, and the dosage was 10 mL/Kg body weight. Paclitaxel was dissolved in saline (0.9% NaCl), which was administered intravenously in a volume of 10 ml/kg body weight. The suspension of BI853520 could be used for up to 7 days. Paclitaxel solution was stored at 6° C. and used for up to 14 days.\n1.7. Monitoring tumor growth and side effects: Tumor diameters were measured with calipers three times a week. The volume [mm^3] of each tumor was calculated according to the equation “tumor volume=length×diameter^2×π/6”. To monitor the side effects of the treatment, the mice were checked daily for abnormalities and their body weights were measured three times a week. For ethical reasons, animals with tumors larger than 1.5 cm in diameter, ulcerated tumors, or 20% body weight loss were euthanized.\nStatistical assessment of tumor volume and body weight on day 13 was performed. Animal number 1 (control group) was excluded from the statistical evaluation because of weight loss and had to be euthanized early (day 9). Measured tumor volume was used as the target variable in the statistical analysis. The number of animals and the median, minimum and maximum tumor volumes in each group were calculated. For a quick overview of possible treatment effects, the median tumor volume for each treatment group T and the median tumor volume for the control group C were used to calculate TGI: TGI=100×[(Cd−C1)−(Td−T1)]/(Cd−C1) • wherein, C1, T1=median tumor volume in control and treatment groups at the start of the assay (day 1). • Cd, Td=median tumor volume in control and treatment groups at the end of the assay (day 13).\nThe wilcoxon test was used for comparison. For body weight, the percent change relative to initial body weight on day 1 was used as the target variable for statistical analysis. The number of animals, and the median, minimum and maximum weight changes in each group were calculated.\nOne-sided test to compare all treatment groups with control group was performed for observing: • reduction in tumor volume (inhibition of tumor growth, efficacy parameter) and • reduction in weight changes (weight loss, tolerance parameters).\nWithin each subtopic, p-values for the efficacy parameter were compared and adjusted for multiple times according to Bonferroni-Holm. The p-value for the tolerance parameter was kept constant so as not to overlook possible side effects. […]"}, "[2]": {"test": "Body weight change (tolerability) in the HT-1080 mouse study", "type": "in vivo", "settings": "12.5 mg/kg qd, end of the assay (day 13) versus day 1", "description": "• 1. Materials and Method: • 1.1. Design of Research • Treatment began when the median tumor volume was between 70-130 mm^3. • 10 mice in the control group, and 7 mice in the treatment group. • Oral gavage once daily. • Control: 0.5% hydroxyethyl cellulose • BI 853520: 50 mg/kg, 25 mg/kg, 12.5 mg/kg, 6 mg/kg, • Tumor volume was measured 3 times a week and body weight was monitored daily. • Evaluation of treatment outcome was based on absolute volume of individual tumors. • Tolerability was assessed based on changes in body weight.\nTumor diameters were measured with calipers three times a week (Monday, Wednesday, and Friday). The volume of each tumor [in mm^3] was calculated according to the equation, “tumor volume=length×diameter^2×π/6”. To monitor the side effects of the treatment, the mice were checked daily for abnormalities and their body weights were measured daily. Animals were sacrificed at the end of the study (approximately two weeks after the start of treatment). During the study, animals with tumor necrosis or tumors larger than 2000 mm^3 were sacrificed ahead of schedule for ethical reasons.\nAt the end of the assay on day 13, statistical evaluation of tumor volume and body weight parameters was performed. […] A nonparametric approach was used, and the number of observations, median, minimum and maximum values were calculated. […]"}}}
{"smiles": "COc1cc(C(=O)NC2CCN(C)CC2)c(F)cc1Nc1ncc(C(F)(F)F)c(Oc2cccc3c2C(=O)N(C)C3)n1", "note": "[BI853520]", "values": [{"measurement": "TGI", "setting": "[1]; BI853520 50 mg/Kg qd p.o., day 13", "value": 106, "unit": "%"}, {"measurement": "Tumor shrinkage [x/y]", "setting": "[1]; day 13, 50 mg/kg", "value": "6/7"}, {"measurement": "Tumor shrinkage [x/y]", "setting": "[1]; day 13, listed as BI 853520, 50 mg/kg", "value": "6 of 7"}, {"measurement": "Inhibition of tumor growth (in words)", "setting": "[1]; BI 853520 50 mg/kg", "value": "statistically significant inhibition of tumor growth"}, {"measurement": "Median tumor volume", "setting": "[1]; BI 853520 50 mg/kg per day, day 13 (start 175 mm^3)", "value": 126, "unit": "mm^3"}, {"measurement": "Median weight change", "setting": "[2]", "value": 5.7, "unit": "%"}]}
